Columns and labels:
[1] = test system: adult S. mansoni; assay: Phenotypic screen of adult S. mansoni worms, severity scores and descriptors; type: cell-based, Schistosoma mansoni; details: for Descriptors (10 µM) 1 h / Severity Scores (10 μM) 1 h / Descriptors (10 µM) 5 h / Severity Scores (10 μM) 5 h / Descriptors (10 µM) 24 h / Severity Scores (10 μM) 24 h / Descriptors (10 µM) 48 h / Severity Scores (10 μM) 48 h: adult S. mansoni; for Descriptors (10 µM) 1 h / Descriptors (10 µM) 5 h / Descriptors (10 µM) 24 h / Descriptors (10 µM) 48 h: phenotypic descriptors; for Severity Scores (10 μM) 1 h / Severity Scores (10 μM) 5 h / Severity Scores (10 μM) 24 h / Severity Scores (10 μM) 48 h: scale 0 (no activity) to 4 (maximal activity); for bioactivity against adult S. mansoni: adult schistosomes; for Severity Scores (10 μM) 1 h / Severity Scores (10 μM) 5 h / Severity Scores (10 μM) 24 h / Severity Scores (10 μM) 48 h / bioactivity against adult S. mansoni: 10 μM
Description: Because the schistosome parasite can present multiple and dynamic phenotypic responses to chemical insult,[16] we employ a constrained nomenclature of descriptors to describe the changes in the parasite as a function of time and concentration (e.g., motility, density, and shape; and in the case of the adult parasite, an inability to adhere to the bottom of the assay dish). These descriptors are converted into severity scores on a scale of 0 (green)–4 (severest/red) that allow for partially quantitative comparisons of compound effects.[1]−[19] […] The descriptors themselves and their respective scores are detailed in the Supporting Information, Table S1. Severity score data are presented in the results (with the corresponding descriptors detailed in the Supporting Information, Tables S2–S8), and eight new analogs developed and synthesized in support of this effort are described. Finally, absorption, distribution, metabolism and excretion (ADME) data of all compounds presented in this work are reported in the Supporting Information, Table S15.
Table S1. Descriptors and associated severity scores used for S. mansoni adults.
R (rounded or shape altered 1
On sides (adults unable to 1
Shrunk (adults are shorter 1
surface (tegument) of adults)
dfailed to create analytical method
Maintenance of the Schistosoma mansoni life cycle (NMRI isolate), the preparation of adult worms (≥ 42-
days-old), and their co-incubation with test compounds were as described.7-9 Phenotypic responses were
visually recorded using a constrained nomenclature and converted to severity scores on a scale from zero
(no activity) to 4 (maximal activity).8, 9 Use of hamsters for maintaining the S. mansoni life-cycle was
approved by the Institutional Animal Care and Use Committee of the University of California San Diego.
The human myelomonocytic cell line THP -1 was grown at 37 °C and 5% CO2 in RPMI-1640 supplemented
with 10% iFBS, 2 mM glutamate, 100 U/mL penicillin and […] streptomycin.
Drug toxicity to HepG2 cells .10 HepG2 cells line were obtained from the American Type Culture
Collection and cultured in Minimal Essential Medium (MEM) supplemented with 0.19% sodium
bicarbonate, 10% Fetal Bovine Serum, 2 mM L -glutamine, 0.1 mM MEM non-essential amino, 0.009
mg/mL insulin, 1.76 mg/mL bovine serum albumin. The viability of the cells was measured using the MTT
(thiazolyl blue reduction) method. Briefly, ninety -six-well plates were seeded with 2.5 × 10^4 cells/well in
170 ml of culture medium and incubated overnight in 5% CO 2 at 37 °C. Cells were exposed to different
experimental compounds in DMSO. After 48 hours incubation, the viability of the cells was assessed using
MTT (thiazolyl blue reduction) as a dose response assay (11 two -fold serial dilutions) to obtain a calculated
IC50 determination. 4-Azaindolo[2,1-b]quinazoline-6,12-dione is used as a toxicity positive control and
each assay plate includes the following 3 additional controls: a) background control: no cells and no drug
was added, b) target control: cells added but no drugs, and c) DMSO control: same as the target control
except the culture media contains 0.6% DMSO. Absorbance was determined in all wells using a Perkin
Elmer, Ensight plate reader. The fifty percent inhibitory concentrations (IC50’s) were determined using
GraphPad Prism nonlinear regr ession (sigmoidal dose -response, variable slope) equation .
ADME Experiment Protocols
Aqueous pH 7.4 Solubility. Compounds were dried down from 10 mM DMSO solutions using centrifugal
evaporation technique. Phosphate buffer (0.1 M pH 7.4) was added and StirStix were inserted in the glass
vials, with shaking then performed at a constant temperature of 25 °C for 20 -24 h. This step was followed
by double centrifugation with a tip wash in between, to ensure that no residues of the dried compounds
interfere. The solutions were diluted before analysis and quantification using LC/MS/MS was performed.

[2] = Human liver microsomal Clint; type: in vitro ADME; details: human liver microsomes, intrinsic clearance; read-out: HLM Clint
[3] = Rat hepatocyte Clint; type: in vitro ADME; details: rat hepatocytes, intrinsic clearance; read-out: RH CLint
[4] = Log D7.4 shake-flask octanol-water; type: physicochemical; details: pH 7.4
Description: Log D7.4. Shake-flask octanol-water distribution coefficient was determined at pH 7.4 (Log D7.4). The aqueous solution used is 10 mM sodium phosphate pH 7.4 buffer. The method has been validated for Log D7.4 ranging from -2 to 5.0.
Human Plasma Protein Binding (PPB). PPB was determined using equilibrium dialysis (RED device) to separate free from bound compound. The amount of compound in plasma (10 µM initial concentration) and in dialysis buffer (pH 7.4 phosphate buffer) was measured by LC-MS/MS after equilibration at 37 °C in a dialysis chamber. The fraction unbound (fu) is reported.
Human Liver Microsomal Clint. In vitro intrinsic clearance was determined from human liver microsomes using a standard approach.11 Following incubation and preparation, the samples were analyzed using […]
Rat Hepatocyte Clint. In vitro intrinsic clearance was determined from rat hepatocytes using a standard approach.11 Following incubation and preparation, the samples were analyzed using LC/MS/MS. Refined […]
Calculated LogP and LogD values. Both LogP and LogD predictions are based on a modified version of the method12 where the predicted partition coefficients are composed of the molecules’ atomic increments.
General Chemistry. All starting materials were commercially obtained and were used without further purification, unless specified. Reaction solvents were purified by passage through alumina columns on a purification system manufactured by Innovative Technology (Newburyport, MA). NMR spectra were obtained on Varian NMR systems, operating at 400 or 500 MHz for 1 H acquisitions. LCMS analysis was performed using a Waters AllianceHT e2795 reverse phase HPLC (Waters SunFire C18 4.6 × 50 mm, 3.5 μm column), with a Waters 2996 photodiode array detector scanning from 210 nm to 600 nm, and Waters Micromass ZQ detector (electrospray ionization). Where required, final compounds were purified by preparative reverse phase HPLC (columns Waters Symmetry RP8 30 × 50 mm, 5 μm column, or OBD RP18 30 × 50 mm, 5 μm), with a single wavelength UV−visible detector and Waters Micromass ZQ (electrospray ionization).

| SMILES | Descriptors (10 µM) 1 h [1] | Severity Scores (10 μM) 1 h [1] | Descriptors (10 µM) 5 h [1] | Severity Scores (10 μM) 5 h [1] | Descriptors (10 µM) 24 h [1] | Severity Scores (10 μM) 24 h [1] | Descriptors (10 µM) 48 h [1] | Severity Scores (10 μM) 48 h [1] | bioactivity against adult S. mansoni [1] | microsomal CLint [2] [µL/min/mg] | hepatocyte CLint [3] [µL/min/1e6 cells] | logD [4] |
| --- | --- | --- | --- | --- | --- | --- | --- | --- | --- | --- | --- | --- |
| CC(C)(C)OC(=O)N1CCN(c2ncc(-c3ccc4c(Nc5cnccn5)ccnc4c3)cn2)CC1 [3a] | none | 0 | none | 0 | none | 0 | none | 0 | no bioactivity | > 300 | 32 | 4.7 |
| O=C(O)C1CCCN1c1ncc(-c2ccc3c(Nc4cnccn4)ccnc3c2)cn1 (centres unmarked) [3c] | none | 0 | none | 0 | none | 0 | none | 0 | no bioactivity | < 3 | < 1 | 0.1 |
| COC(=O)C1CCCN1c1ncc(-c2ccc3c(Nc4cnccn4)ccnc3c2)cn1 (centres unmarked) [3d] | none | 0 | none | 0 |  | 3 |  | 4 | bioactivity after 24 h, progressing to the severest response by 48 h | 220 | 230 | 3.5 |
| CN(CCNc1ncc(-c2ccc3c(Nc4cnccn4)ccnc3c2)cn1)C(=O)OC(C)(C)C [3e] | none | 0 | none | 0 | none | 0 |  | 4 | maximal phenotypic response after 48 h | > 300 | > 300 | 4.1 |
| Cc1c(-c2cnc(N3CCN(C)CC3)nc2)ccc2c(Nc3cnccn3)ccnc12 [9a] | none | 0 | none | 0 |  | 1 |  | 2 | moderate potency after 24 h |  | 52 | 3.3 |
| CN1CCN(c2ncc(-c3ccc4c(NC5CCC(N(C)C)CC5)ccnc4c3)cn2)CC1 (centres unmarked) [S1a] | none | 0 | none | 0 | none | 0 |  |  | no significant bioactivity |  | 4.2 | 0.3 |
| CN1CCN(c2ncc(-c3ccc4c(NCCN5CCCC5)ccnc4c3)cn2)CC1 [S1b] | none | 0 | none | 0 | none | 0 |  | 1 | no significant bioactivity |  | 1 | 1.2 |
| CN1CCN(c2ncc(-c3ccc4c(N[C@@H]5CCCC[C@H]5O)ccnc4c3)cn2)CC1 [S1c] | none | 0 | none | 0 | none | 0 |  |  | no significant bioactivity |  | 8.1 | 1.7 |
| CN1CCN(c2ncc(-c3ccc4c(NCC5CCOCC5)ccnc4c3)cn2)CC1 [S1e] | none | 0 | none | 0 | none | 0 |  | 1 | no significant bioactivity |  | 23 | 2 |

Reference: publication PMC7073886, “Structure–Bioactivity Relationships of Lapatinib Derived Analogs against Schistosoma mansoni” (ACS Medicinal Chemistry Letters, 2020)
